# Assay results: patent US20240408022A1, “DESIDUSTAT PARTICLES AND COMPOSITIONS THEREOF” (ZYDUS LIFESCIENCES LIMITED, priority 2021, published 2024)
# Experiment: Particle size and specific surface area analysis (Malvern Mastersizer 3000, laser diffraction)
# Type: physicochemical
# Settings: for D10 / D50 / D90: particle size of desidustat used in the composition
# Procedure: (i) Particle Size and Specific Surface Area Analysis Method:
# Particle size was determined by Malvern Mastersizer 3000 with Hydro MV accessory, laser diffraction particle size analyser. About 100 mg of drug substance weighed and transferred into 100 mL of glass beaker. About 10-15 drops of dispersant sunflower oil:cyclohexane (80:20) were added and the lumps were broken with glass rod for about 3 to 5 min. 20 mL of dispersant was added into the same glass beaker and the content were shaken for 3-5 minutes with glass rod to mix well. Background measurement using dispersant was performed. When the blank correction/background measurement was over, sample slurry (with continuous manual shaking) was added in the sampler at 1500 rpm to get the target obscuration value between 10% and 30% and remained constant. Then the histogram was recorded.
# [1] = Example 1, after further multi-milling using 0.2 mm sieve
SMILES,D10 [μm],D50 [μm],D90 [μm],Particle size distribution D10 [1] [μm],Particle size distribution D50 [1] [μm],Particle size distribution D90 [1] [μm],Specific surface area [1] [m^2/g],"Particle size D90 (Example 1, after multi-milling using 5 mm sieve and drying, before 0.2 mm sieve) [μm]"
O=C(O)CNC(=O)c1c(O)c2ccccc2n(OCC2CC2)c1=O [Milled desidustat],0.80,22.7,130.0,,,,,
"O=C(O)CNC(=O)c1c(O)c2ccccc2n(OCC2CC2)c1=O [desidustat, 2-(1-(Cyclopropylmethoxy)-4-hydroxy-2-oxo-1,2-dihydroquinoline-3-carboxamido) acetic acid]",,,,0.80,22.7,130,2,366
O=C(O)CNC(=O)c1c(O)c2ccccc2n(OCC2CC2)c1=O [Unmilled desidustat],2.16,98.3,366,,,,,
